Data from patent publication US20080027042A1, “Novel Aminopyridine Derivatives Having Aurora a Selective Inhibitory Action” (priority 2004, published 2008).
Several values for one entry are separate records, joined by “and”; a condition that tells them apart may be missing. Equal values may be shown once.

Tests used:
[1] = target: T1, Aurora B (Homo sapiens, UniProt Q96GD4); experiment: Aurora B inhibitory action (33P-ATP kinase assay, Kemptide substrate); format: biochemical; details: 100 μM ATP, 30° C., 20 minutes
T1 construct: histidine tag (N); made in house; host or cells: Escherichia coli BL21-CodonPlus(DE3)-RIL
Method in brief: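 His-tagged Aurora B expressed in E. coli, reacted with 100 μM Kemptide, 100 μM ATP plus [γ-33P]ATP in Tris pH 7.4, 15 mM Mg acetate, 0.2 mM EDTA, 30 °C, 20 min. Peptide captured on P81 filters for scintillation counting; compounds added from DMSO dilutions.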

[2] = system: Human cervical cancer cells (HeLa S3); experiment: Cell growth inhibitory effect, WST-8 method; format: cell-based; details: 72 h, HeLa S3, three days incubation
From the text: Method for Judging the Pharmaceutical Effect Using cells
Fetal calf serum (FCS) was purchased from Moregate Biotech, and DMEM medium was purchased from Invitrogen Corp. WST-8 was purchased from Kishida Chemical Co., Ltd.
(§1) Human cervical cancer cells (HeLa S3) were obtained from the American Type Culture Collection (ATCC).
(§2) c) Method of Judging the Effect
Cells were suspended in a DMEM medium containing 10% FCS, and the cell suspension was dispensed to a 96-well plastic plate at a rate of 750 cells/l 00 microliters per well. The plate was incubated overnight in 5% CO2-95% air at 37° C. A drug was subjected to graded dilution in dimethylsulfoxide and further diluted with a DMEM medium containing 10% FCS. Then, the dilution was dispensed to the plate on which cells had been disseminated, at a rate of 100 microliters per well. The plate was incubated for further three days in 5% CO2-95% air at 37° C. Cell growth after incubation was measured by the WST-8 method (H. Tominaga, et al., Anal. Commun., 36, 47-50 (1999)). Here, the WST-8 method refers to a method in which 20 microliters of a WST-8 reagent solution is added to each well, incubation is conducted at 37° C. for 45 minutes, the plate is stirred, and the amount of formazan produced is measured by a calorimetric method to determine the inhibitory rate of the drug. The concentration for 50% growth inhibition (EC50, IM) of the compound was determined.

[3] = target: T2, Aurora A (Homo sapiens, UniProt O14965); experiment: Aurora A inhibitory action (33P-ATP kinase assay, Kemptide substrate); format: biochemical; details: 20 μM ATP, 30° C., 20 minutes
T2 construct: histidine tag (N); made in house; host or cells: Escherichia coli BL21-CodonPlus(DE3)-RIL
T2 sequence (O14965 1-403): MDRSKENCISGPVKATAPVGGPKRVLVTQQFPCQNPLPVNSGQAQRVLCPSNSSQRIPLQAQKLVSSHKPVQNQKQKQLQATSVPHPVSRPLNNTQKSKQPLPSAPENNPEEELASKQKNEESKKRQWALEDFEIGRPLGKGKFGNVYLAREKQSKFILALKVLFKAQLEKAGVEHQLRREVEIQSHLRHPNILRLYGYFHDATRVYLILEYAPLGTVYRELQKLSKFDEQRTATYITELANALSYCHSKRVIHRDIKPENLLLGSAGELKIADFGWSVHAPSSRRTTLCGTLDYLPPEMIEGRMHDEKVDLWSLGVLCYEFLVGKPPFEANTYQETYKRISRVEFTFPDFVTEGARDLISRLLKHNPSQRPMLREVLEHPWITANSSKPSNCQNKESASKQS
Method in brief: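 His-tagged Aurora A expressed in E. coli, Ni-purified; reaction in 50 mM Tris pH 7.4, 15 mM Mg acetate, 0.2 mM EDTA with 100 μM Kemptide, 20 μM ATP plus [γ-33P]ATP, 20 min at 30 °C. Phosphopeptide captured on P81 filters and counted by scintillation; DMSO control.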

[4] = system: Human cervical cancer cells (HeLa S3); experiment: Effect by combined use of drugs in cells (with paclitaxel), WST-8 method; format: cell-based; details: three days; for inhibition at 0.1 µM: HeLa S3, compound 0.1 μM alone; for inhibition at 0.1 µM / inhibition at 0.3 µM / inhibition at 1 µM / inhibition at 3 µM: read-out: Cell growth inhibitory effect by sole administration of the compound of Example (%); for inhibition at 0.3 µM: HeLa S3, compound 0.3 μM alone; for inhibition at 1 µM: HeLa S3, compound 1.0 μM alone; for inhibition at 3 µM: HeLa S3, compound 3.0 μM alone
From the text: Method for Judging the Effect by Combined Use of Drugs in Cells
Fetal calf serum (FCS) was purchased from Moregate Biotech, DMEM medium from Invitrogen Corp., paclitaxel (tradename: Taxol) from Sigma-Aldrich, Inc., and WST-8 from Kishida Chemical Co., Ltd.
as §1, §2
Cells were suspended in a DMEM medium containing 10% FCS, and the cell suspension was dispensed to two 96-well plastic plates at a rate of 750 cells/100 microliters per well. The plates were incubated overnight in 5% CO2-95% air at 37° C. A drug was subjected to graded dilution in dimethylsulfoxide and flurther diluted with DMSO or with a DMEM medium containing 10% FCS and also containing 2 nM paclitaxel. Then, the dilutions were each dispensed to one of the plates on which cells had been disseminated, at a rate of 100 microliters per well. The final concentration of paclitaxel at this stage was 1 nM. Also, the concentrations in the case of sole administration of the compound according to the invention were 0.03, 0.1, 0.3, 1 and 3 μM. The plates were incubated for further three days in 5% CO2-95% air at 37° C. Cell growth after incubation was measured by the WST-8 method (H. Tominaga, et al., Anal. Commun., 36, 47-50 (1999)). Here, the WST-8 method refers to a method in which 20 microliters of a WST-8 reagent solution is added to each well, incubation is conducted at 37° C. for 45 minutes, the plate is stirred, and the amount of formazan produced is measured by a colorimetric method to determine the inhibitory rate of the drug. The growth inhibitory effects of paclitaxel and of the compound according to the invention were determined, with the value obtained in sole treatment of DMSO being defined as 0%.

[5] = HeLa S3, compound 0.1 μM + paclitaxel 1 nM
[6] = HeLa S3, compound 0.3 μM + paclitaxel 1 nM
[7] = HeLa S3, compound 1.0 μM + paclitaxel 1 nM
[8] = HeLa S3, compound 3.0 μM + paclitaxel 1 nM

T1 sequence (Q96GD4 whole entry): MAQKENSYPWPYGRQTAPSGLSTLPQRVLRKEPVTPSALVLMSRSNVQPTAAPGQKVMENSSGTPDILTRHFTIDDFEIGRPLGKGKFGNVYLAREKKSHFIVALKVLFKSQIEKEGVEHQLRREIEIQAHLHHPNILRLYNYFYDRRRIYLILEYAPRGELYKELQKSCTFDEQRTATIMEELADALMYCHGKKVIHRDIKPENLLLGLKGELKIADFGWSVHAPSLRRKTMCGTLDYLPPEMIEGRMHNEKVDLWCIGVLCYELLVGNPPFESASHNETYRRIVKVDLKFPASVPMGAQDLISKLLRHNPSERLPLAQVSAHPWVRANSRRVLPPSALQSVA

Q: For O=C(c1cccc(Cl)c1F)N1CCN(Cc2cccc(Nc3nccs3)n2)CC1 [Example 5, 6-((4-(3-chloro-2-fluorobenzoyl)piperazin-1-yl)methyl)-N-thiazol-2-ylpyridin-2-amine], which IC50 [1] is on record?
A: 440 nM

Q: What about the IC50 [2] of the same compound?
A: 11000 nM

Q: What about the IC50 [3] of the same compound?
A: 0.67 nM

Q: And the “Cell growth inhibitory effect by combined administration of paclitaxel and the compound of Example (%)” value (from here on “Cell growth inhibitory effect … of Example (%)”) [4, 5]?
A: 72.8%

Q: What about the inhibition at 0.1 µM ([4]; Homo sapiens, HeLa S3, 72 h) of the same compound?
A: 0%

Q: With O=C(c1cccc(Cl)c1Cl)N1CCN(Cc2cccc(Nc3nccs3)n2)CC1 [Example 6, 6-((4-(2,3-dichlorobenzoyl)piperazin-1-yl)methyl)-N-thiazol-2-ylpyridin-2-amine] as the compound, how does the IC50 [1] read?
A: 200 nM

Q: What about the IC50 [2] of the same compound?
A: 400 nM

Q: And the IC50 [3]?
A: 0.5 nM

Q: What about the “Cell growth inhibitory effect … of Example (%)” value [4, 6] of the same compound?
A: 89.0%

Q: What about the inhibition at 0.3 µM ([4]; Homo sapiens, HeLa S3, 72 h) of the same compound?
A: 19.6%

Q: For Cc1cccc(C(=O)N2CCN(Cc3cccc(Nc4nccs4)n3)CC2)c1F [Example 8, 6-((4-(2-fluoro-3-methylbenzoyl)piperazin-1-yl)methyl)-N-thiazol-2-ylpyridin-2-amine], which IC50 [1] is on record?
A: 1400 nM

Q: And the IC50 [2]?
A: 250 nM

Q: And the IC50 [3]?
A: 1.9 nM

Q: What about the “Cell growth inhibitory effect … of Example (%)” value [4, 5] of the same compound?
A: 87.1%

Q: And the inhibition at 0.1 µM ([4]; Homo sapiens, HeLa S3, 72 h)?
A: 4.6%

Q: For O=C(c1cccc(Cl)c1Cl)N1CCN(Cc2cccc(Nc3cc[nH]n3)n2)CC1 [Example 17, 6-((4-(2,3-dichlorobenzoyl)piperazin-1-yl)methyl)-N-1H-pyrazol-3-ylpyridin-2-amine], which IC50 [1] is on record?
A: 3200 nM

Q: What about the IC50 [2] of the same compound?
A: 1100 nM

Q: And the IC50 [3]?
A: 1.2 nM

Q: And the “Cell growth inhibitory effect … of Example (%)” value [4, 6]?
A: 73.8%

Q: And the inhibition at 0.3 µM ([4]; Homo sapiens, HeLa S3, 72 h)?
A: 0%

Q: Which IC50 [1] does the source give for O=C(O)C(F)(F)F.O=C(c1cccc(C(F)(F)F)c1F)N1CCN(Cc2cccc(Nc3cc[nH]n3)n2)CC1 [Example 19, 6-((4-(2-fluoro-3-(trifluoromethyl)benzoyl)piperazin-1-yl)methyl)-N-1H-pyrazol-3-ylpyridin-2-amine trifluoroacetate] here?
A: 530 nM

Q: And the IC50 [2]?
A: 920 nM

Q: And the IC50 [3]?
A: 0.9 nM

Q: What about the “Cell growth inhibitory effect … of Example (%)” value [4, 5] of the same compound?
A: 77.6%

Q: And the inhibition at 0.1 µM ([4]; Homo sapiens, HeLa S3, 72 h)?
A: 0%

Q: Which IC50 [1] does the source give for O=C(c1cccc(C(F)F)c1F)N1CCN(Cc2cccc(Nc3cc[nH]n3)n2)CC1 [Example 22, 6-((4-(3-(difluoromethyl)-2-fluorobenzoyl)piperazin-1-yl)methyl)-N-1H-pyrazol-3-ylpyridin-2-amine] here?
A: 1500 nM

Q: And the IC50 [2]?
A: 3500 nM

Q: And the IC50 [3]?
A: 2.9 nM

Q: And the “Cell growth inhibitory effect … of Example (%)” value [4, 7]?
A: 80.9%

Q: And the inhibition at 1 µM ([4]; Homo sapiens, HeLa S3, 72 h)?
A: 18.5%

Q: What does the source list for Cc1cc(Nc2cccc(CN3CCN(C(=O)c4cccc(Cl)c4F)CC3)n2)n[nH]1 [Example 25, 6-((4-(3-chloro-2-fluorobenzoyl)piperazin-1-yl)methyl)-N-(5-methyl-1H-pyrazol-3-yl)pyridin-2-amine]?
A: IC50 [1]: 770 nM; IC50 [2]: 800 nM; IC50 [3]: 1.1 nM; Cell growth inhibitory effect by combined administration of paclitaxel and the compound of Example (%) [4, 5]: 65.1%; inhibition at 0.1 µM ([4]; Homo sapiens, HeLa S3, 72 h): 0%

Q: What does the source list for Cc1cc(Nc2cccc(CN3CCN(C(=O)c4cccc(Br)c4F)CC3)n2)n[nH]1 [Example 28, 6-((4-(3-bromo-2-fluorobenzoyl)piperazin-1-yl)methyl)-N-(5-methyl-1H-pyrazol-3-yl)pyridin-2-amine]?
A: IC50 [1]: 310 nM; IC50 [2]: 1100 nM; IC50 [3]: 0.52 nM; Cell growth inhibitory effect by combined administration of paclitaxel and the compound of Example (%) [4, 6]: 84.5%; inhibition at 0.3 µM ([4]; Homo sapiens, HeLa S3, 72 h): 0%

Q: With Cc1cc(Nc2cccc(CN3CCN(C(=O)c4cccc(C(F)(F)F)c4F)CC3)n2)n[nH]1 [Example 29, 6-((4-(2-fluoro-3-(trifluoromethyl)benzoyl)piperazin-1-yl)methyl)-N-(5-methyl-1H-pyrazol-3-yl)pyridin-2-amine] as the compound, how does the IC50 [1] read?
A: 590 nM

Q: And the IC50 [2]?
A: 3300 nM

Q: And the IC50 [3]?
A: 0.97 nM

Q: What about the “Cell growth inhibitory effect … of Example (%)” value [4, 6] of the same compound?
A: 77.3%

Q: What about the inhibition at 0.3 µM ([4]; Homo sapiens, HeLa S3, 72 h) of the same compound?
A: 0%

Q: What does the source list for Cc1cc(Nc2cccc(CN3CCN(C(=O)c4cccc(C(F)(F)F)c4Cl)CC3)n2)n[nH]1 [Example 30, 6-((4-(2-chloro-3-(trifluoromethyl)benzoyl)piperazin-1-yl)methyl)-N-(5-methyl-1H-pyrazol-3-yl)pyridin-2-amine]?
A: IC50 [1]: 320 nM; IC50 [2]: 2500 nM; IC50 [3]: 1.1 nM; Cell growth inhibitory effect by combined administration of paclitaxel and the compound of Example (%) [4, 7]: 90.1%; inhibition at 1 µM ([4]; Homo sapiens, HeLa S3, 72 h): 29.1%

Q: What does the source list for O=C(O)C(F)(F)F.O=C(c1cccc(Cl)c1Cl)N1CCN(Cc2cccc(Nc3ncns3)n2)CC1 [Example 36, 6-((4-(2,3-dichlorobenzoyl)piperazin-1-yl)methyl)-N-1,2,4-thiadiazol-5-ylpyridin-2-amine trifluoroacetate]?
A: IC50 [1]: 3200 nM; IC50 [2]: 6800 nM; IC50 [3]: 2.6 nM; Cell growth inhibitory effect by combined administration of paclitaxel and the compound of Example (%) [4, 8]: 83.4%; inhibition at 3 µM ([4]; Homo sapiens, HeLa S3, 72 h): 17.2%

Q: Which results are given for O=C(c1ccccc1C(F)(F)F)N1CCN(Cc2cccc(Nc3ncns3)n2)CC1 [Example 39, 6-((4-(2-(trifluoromethyl)benzoyl)piperazin-1-yl)methyl)-N-1,2,4-thiadiazol-5-ylpyridin-2-amine]?
A: IC50 [1]: 9100 nM; IC50 [2]: 11000 nM; IC50 [3]: 67 nM; Cell growth inhibitory effect by combined administration of paclitaxel and the compound of Example (%) [4, 8]: 72.2%; inhibition at 3 µM ([4]; Homo sapiens, HeLa S3, 72 h): 5.4%

Q: Which results are given for O=C(c1cccc(C(F)(F)F)c1F)N1CCN(Cc2cccc(Nc3ncns3)n2)CC1 [Example 40, 6-((4-(2-fluoro-3-(trifluoromethyl)benzoyl)piperazin-1-yl)methyl)-N-1,2,4-thiadiazol-5-ylpyridin-2-amine]?
A: IC50 [1]: 1900 nM; IC50 [2]: 6500 nM; IC50 [3]: 0.99 nM; Cell growth inhibitory effect by combined administration of paclitaxel and the compound of Example (%) [4, 7]: 76.9%; inhibition at 1 µM ([4]; Homo sapiens, HeLa S3, 72 h): 6.5%

Q: Which “Cell growth inhibitory effect by sole administration of paclitaxel (1 nM) (%)” value ([4]; HeLa S3, paclitaxel 1 nM alone) does the source give for CC(=O)O[C@H]1C(=O)[C@@]2(C)[C@H]([C@H](OC(=O)c3ccccc3)[C@]3(O)C[C@H](OC(=O)[C@H](O)[C@@H](NC(=O)c4ccccc4)c4ccccc4)C(C)=C1C3(C)C)[C@]1(OC(C)=O)CO[C@@H]1C[C@@H]2O [paclitaxel, reference compound] here?
A: 37.8% and 45.4% and 43.3% and 36.8%

Q: What about the inhibition at 0.001 µM ([4]; Homo sapiens, HeLa S3, 72 h, HeLa S3, paclitaxel 1 nM alone, read-out: Cell growth inhibitory effect by sole administration of paclitaxel (1 nM) (%)) of the same compound?
A: 44.1%
